Data: publication PMC11597207, “Synthesis and Anti-Inflammatory and Analgesic Potentials of Ethyl 2-(2,5-Dioxo-1-Phenylpyrrolidin-3-yl)-2-Methylpropanoate” (Pharmaceuticals, 2024)

Key:
[1] = tested on: carrageenan-induced paw edema; assay: Carrageenan-induced paw edema model; type: in vivo; details: mice, dose 10 mg/kg
Method: The anti-inflammatory activity of MAK01 was evaluated through a carrageenan-induced paw edema model. The mice, with weights ranging from 25 to 30 g, were separated into five distinct groups, these being Vehicle Group 1, Aspirin Group 2, and different concentrations of MAK01 in Groups 3–5. Each of these groups comprised five mice. The negative control group in the experiment received a specific solution comprising normal saline, DMSO, and Tween-80. The mixture contained 94% normal saline, 5% DMSO, and 1% Tween-80, delivered at a concentration of 10 mL per kg. In contrast, the positive control group in the assay received the comparator aspirin at a precise dose of 10 mg/kg. The test samples were administered at doses of 10 mg/kg, 20 mg/kg, and 30 mg/kg, given intra-peritoneally. After 30 min, a 2% carrageenan suspension (0.2 mL) was administered to each mouse in every group via a subcutaneous injection in the hind paw. In the experiment, a plethysmometer was used to precisely measure inflammation and edema. These measurements were taken at multiple time points both prior to and following the carrageenan administration. Specifically, the readings were recorded at 1, 2, 3, 4, and 5 h intervals to monitor the progress of the inflammatory response and paw swelling. These obtained results were then compared against the outcomes from the negative control group. The gathered data from the experiment, relating to the impact of the newly synthesized compounds on paw edema, were carefully processed to derive the percentage of edema inhibition. Using the below equation, the percent inhibition was calculated. % Inhibition=Ce−Te/Ce×100
In the formula, ‘Ce’ refers to the control group paw edema volume, while ‘Te’ denotes test groups’ paw edema volume.

[2] = tested on: mice; assay: Hot plate antinociceptive test; type: in vivo; details: dose 5 mg/kg
[3] = biological target: T1, 5-LOX (Homo sapiens, UniProt P09917); assay: 5-LOX inhibitory assay; type: biochemical; details: read-out: 5-LOX percent inhibition
T1 construct: purchased Cayman Chemical Batch No.: A3457
T1 sequence (P09917 1-674): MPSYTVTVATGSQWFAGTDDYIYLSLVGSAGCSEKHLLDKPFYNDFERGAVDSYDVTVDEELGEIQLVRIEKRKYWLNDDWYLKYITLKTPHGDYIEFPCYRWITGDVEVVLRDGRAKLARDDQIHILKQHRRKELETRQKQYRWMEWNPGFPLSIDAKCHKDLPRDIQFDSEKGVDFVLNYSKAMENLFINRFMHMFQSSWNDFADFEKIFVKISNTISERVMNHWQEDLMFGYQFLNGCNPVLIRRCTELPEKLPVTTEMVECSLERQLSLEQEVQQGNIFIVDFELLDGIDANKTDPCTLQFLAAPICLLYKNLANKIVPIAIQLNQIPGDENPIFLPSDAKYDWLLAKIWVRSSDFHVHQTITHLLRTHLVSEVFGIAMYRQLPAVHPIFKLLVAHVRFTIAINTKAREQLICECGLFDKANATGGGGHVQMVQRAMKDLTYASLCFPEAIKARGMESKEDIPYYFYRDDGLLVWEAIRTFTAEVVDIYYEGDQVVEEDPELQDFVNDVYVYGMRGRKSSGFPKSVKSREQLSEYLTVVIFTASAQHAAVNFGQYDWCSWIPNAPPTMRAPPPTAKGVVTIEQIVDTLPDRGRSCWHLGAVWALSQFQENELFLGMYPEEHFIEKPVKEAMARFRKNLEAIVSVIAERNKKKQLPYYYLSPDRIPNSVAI
Method: The activity of MAK01 against the 5-LOX enzyme was investigated using a human recombinant form of 5-LOX [47]. To begin the 5-LOX activity assay, a 10,000 U/mL solution of 5-LOX was prepared in a phosphate buffer with a pH of 6.3. A range of concentrations of the test compounds in the same buffer were prepared for assay. As a substrate for 5-LOX, linoleic acid (80 mM) was diluted with ethyl alcohol and used in the assay. The experiment involved mixing the same amount of both the enzyme solution and the test sample, such as mixing 0.25 mL 5-LOX with 0.25 mL of the compound, both dissolved in buffer. The mixing was followed by incubation at 25 °C for 5 to 10 min. Subsequently, 0.10 mL of the linoleic acid solution was added and allowed to incubate for another 5 min. The absorbance was measured using a UV–visible spectrophotometer at a wavelength of 234 nm, and the percent inhibition was calculated based on the absorbance readings. The same procedure was repeated for different concentrations of the test samples. Zileuton, as a reference drug, was used in comparisons. Using the following formula, the percent inhibition for each sample was calculated: % Inhibition=Abs. of Control−Abs. of Sample/Abs. of Control×100

For `CC(=O)Oc1ccccc1C(=O)O` [Aspirin, aspirin, reference compound], the “Paw Edema Inhibition in Percent” value ([1]; 1 h) was 47.46 ± 0.80%, the “Paw Edema Inhibition in Percent” value ([1]; 2 h) was 54.42 ± 1.10% and the “Paw Edema Inhibition in Percent” value ([1]; 3 h) was 55.23 ± 0.73%. For the same compound, the “Paw Edema Inhibition in Percent” value ([1]; 4 h) was 56.22 ± 1.34% and the “Paw Edema Inhibition in Percent” value ([1]; 5 h) was 57.57 ± 1.23%.
With `CN1CC[C@]23c4c5ccc(O)c4O[C@H]2[C@@H](O)C=C[C@H]3[C@H]1C5` [Morphine, morphine, reference compound] the “Latency Time (Seconds) on Hot Plate” value ([2]; 30 min) was 13.83 ± 0.63 s, the “Latency Time (Seconds) on Hot Plate” value ([2]; 60 min) was 13.52 ± 0.23 s and the “Latency Time (Seconds) on Hot Plate” value ([2]; 90 min) was 13.29 ± 0.78 s. For the same compound, the “Latency Time (Seconds) on Hot Plate” value ([2]; 120 min) was 12.92 ± 0.56 s and the “Latency Time (Seconds) on Hot Plate” value ([2]; 150 min) was 12.59 ± 0.41 s.
In the case of `CC(c1cc2ccccc2s1)N(O)C(N)=O` (stereo not drawn) [Zileuton, zileuton, reference compound], the inhibition at 62.5 µg/mL [3] is reported as 74%, the inhibition at 125 µg/mL [3] is reported as 78% and the inhibition at 250 µg/mL [3] is reported as 81%. The inhibition at 500 µg/mL [3] was 85% and the inhibition at 1000 µg/mL [3] was 94%.
